Where a name gives a salt, the structure may show the parent alone.
Target: T1, human D2 receptor (Homo sapiens, UniProt P14416)
T1 construct: expressed in transfected cells; cDNA from Origene clones TC308892 and SC123573
Assay: D2 receptor radioligand binding assay (membranes of HEK-293 cells expressing human D2 receptor)
Conditions: radioligand displacement, HEK293 membranes, 37° C. for 120 minutes; read-out: Affinity Score (IC50 values for D2 on a scale of 1 through 5)
Experimental: Affinity for the dopamine D2 receptor was tested in vitro, and the following describes the construction of cell lines expressing human D2 receptor, as well as the binding assays themselves.
Establishment of Stable Cell Lines Expressing Either the Cloned Human D2S Receptor or the Cloned Human D2L Receptor.
The human D2 receptor exists in two isoforms: the short form (D2S) and the long form (D2L). The two isoforms are generated from the D2 gene by alternative splicing and the D2L isoform differs from the D2S isoform by the addition of 29 amino acids in the third intracellular loop of its protein structure.
To establish HEK-293 cell lines stably expressing either the human D2S or the human D2L, the human dopamine D2S receptor (Genebank Accession Number NM_016574) and human dopamine D2L receptor (Genebank Accession Number BC021195) were amplified by PCR from Origene cDNA clones TC308892 and SC123573 (respectively) using the following primers: 5-[…]-3 (SEQ ID NO: 1) sense and 5-[…]-3 (SEQ ID NO: 2) antisense. The resulting PCR products were respectively cloned into pENTR-D-TOPO (Invitrogen), sequenced and then transferred into the pCDNA3.2-DEST (Invitrogen) using the LR-clonasc gateway reaction (Invitrogen) and sequenced again to verify the genes sequence.
HEK293 cells were maintained in Eagles Minimum Essential Medium (MEM) supplemented with 0.292 g/L L-glutamine and 10% (v/v) fetal calf serum at 37° C. in a 5% CO2 humidified atmosphere. Cells were grown to 60-80% confluency in 10 cm dishes before transfection. Transfection of the D2S and D2L containing pcDNA3.2-DEST into HEK-293 cells were performed using Lipofectamine 2000 (Invitrogen). Transfected cells were seeded and diluted 2 days after transfection and maintained in culture medium supplemented with 500 μg/mL G418. The HEK-293 cell line expressing the huD2S (R2D2S) and the huD2L (R2D2L) were maintained in culture medium supplemented with 500 μg/mL G418.
D2 Receptor Binding Assays
HEK293 cells were in Eagles Minimum Essential Medium (MEM) supplemented with 10% FBS, 0.292 g/liter L-glutamine, 10^5 units/liter penicillin, 100 mg/liter streptomycin and […] Geneticin at 37° C. in a 5% CO2 humidified atmosphere. Cells were grown to 80-90% confluence and harvested with cell stripper (Cellgro #25-056-CI). Cells were then washed with PBS (2×). Cells were either pelleted and frozen at −80° C. or membranes were prepared immediately.
Cells from pellet were resuspended in homogenization buffer (15 mM Tris*HCl, 2 mM MgCl2*6H2O, 0.3 mM EDTA, 1 mM EGTA pH 7.4 @ 4° C.). Cells were then homogenized using a Polytron (PT 1200) homogenizer at setting 6 for 10 seconds. Crude membranes were pelleted at 39, 412 g for 15 min, at 4° C. (2×) in a Sorval RC6 plus centrifuge. Membranes were finally resuspended in resuspension buffer (50 mM Tris*HCl, 120 mM NaCl, 10 mM MgCl2*6H2O, 1 mM EDTA pH 7.4 @ 4° C.) and sonicated (Fisher Sonic Dismembrator) at setting 5 for 10 seconds.
The radioligand binding assays were conducted in microtiter plates (Costar #3961) with a final volume of 1.0 mL.
The membranes were thawed at room temperature, briefly homogenized using a sonicator, diluted in assay buffer and kept on wet ice until being added to the assay plate. Membranes were diluted to a final target tissue concentration of 10 μg protein per well. The specific binding should be greater than 80% with less than 10% total radioligand bound to minimize ligand depletion errors.
First compound of the invention (50 μL) or assay buffer (50 mM Tris*HCl, 120 mM NaCl, 5 mM MgCl2*6H2O, 1 mM EDTA, 5 mM KCl pH 7.4 @37° C. plus 0.025% BSA), buffer (700 μL) and then membrane (200 μL) were added to the deep well assay plate, which was then shaken for 10 minutes. Finally, radioligand (50 μL) was added.
The assay plates were incubated at 37° C. for 120 minutes.
The assay plate were filtered over 0.3% PEI pretreated glass fiber filtermats (GF/C) using a Packard Filtermate cell harvester. […]

T1 sequence (P14416 whole entry): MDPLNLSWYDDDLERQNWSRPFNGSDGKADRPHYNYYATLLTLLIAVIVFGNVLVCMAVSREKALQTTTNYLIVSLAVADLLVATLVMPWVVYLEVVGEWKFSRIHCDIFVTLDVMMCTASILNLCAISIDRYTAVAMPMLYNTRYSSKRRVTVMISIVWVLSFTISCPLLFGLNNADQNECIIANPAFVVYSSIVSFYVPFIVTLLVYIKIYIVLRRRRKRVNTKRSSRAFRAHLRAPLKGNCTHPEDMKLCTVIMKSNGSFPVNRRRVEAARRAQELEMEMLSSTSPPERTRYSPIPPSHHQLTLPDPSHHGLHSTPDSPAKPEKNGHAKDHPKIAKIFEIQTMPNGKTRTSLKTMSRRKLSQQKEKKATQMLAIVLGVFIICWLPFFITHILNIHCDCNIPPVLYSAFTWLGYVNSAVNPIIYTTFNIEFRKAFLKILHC

SMILES	IC50 [nM]
O=C(O)c1cccc(CN2CN(c3ccccc3)C3(CCN(CCCN4C(=O)C5(CC5)c5ccccc54)CC3)C2=O)c1 [Compound 130, 3-((4-oxo-8-(3-(2′-oxospiro[cyclopropane-1,3′-indoline]-1′-yl)propyl)-1-phenyl-1,3,8-triazaspiro[4.5]decan-3-yl)methyl)benzoic acid, hydrochloride salt]	< 10
CS(=O)(=O)Nc1ccc(N2CN(c3ccccc3)C3(CCN(CCCC(=O)c4ccc(F)cc4)CC3)C2=O)cc1 [Compound 214, N-(4-(8-(4-(4-Fluorophenyl)-4-oxobutyl)-4-oxo-1-phenyl-1,3,8-triazaspiro[4.5]decan-3-yl)phenyl)methanesulfonamide]	< 10
O=C(O)c1cccc(CN2CN(c3ccccc3)C3(CCN(CCCC(=O)c4cccs4)CC3)C2=O)c1 [Compound 143, 3-((4-oxo-8-(4-oxo-4-(thiophen-2-yl)butyl)-1-phenyl-1,3,8-triazaspiro[4.5]decan-3-yl)methyl)benzoic acid, hydrochloride]	< 10
O=C(CCCN1CCC2(CC1)C(=O)N(c1ccccc1C(=O)O)CN2c1ccccc1)c1ccccc1 [Compound 180, 2-(4-oxo-8-(4-oxo-4-phenylbutyl)-1-phenyl-1,3,8-triazaspiro[4.5]decan-3-yl)benzoic acid]	< 10
O=C(O)c1ccccc1CN1CN(c2ccc(F)cc2)C2(CCN(CCCN3C(=O)C4(CC4)c4ccccc43)CC2)C1=O [Compound 161, 2-((1-(4-Fluorophenyl)-4-oxo-8-(3-(2′-oxospiro[cyclopropane-1,3′-indoline]-1′-yl)propyl)-1,3,8-triazaspiro[4.5]decan-3-yl)methyl)benzoic acid]	< 10
O=C(O)c1cccc(CN2CN(c3ccc(F)cc3)C3(CCN(CCCn4c(=O)[nH]c5ccccc54)CC3)C2=O)c1 [Compound 43, 3-((1-(4-Fluorophenyl)-4-oxo-8-(3-(2-oxo-2,3-dihydro-1H-benzo[d]imidazol-1-yl)propyl)-1,3,8-triazaspiro[4.5]decan-3-yl)methyl)benzoic acid]	< 10
O=C(O)[C@H](c1ccccc1)N1CN(c2ccccc2)C2(CCN(CCCn3c(=O)[nH]c4ccccc43)CC2)C1=O [Compound 40, (S)-2-(4-oxo-8-(3-(2-oxo-2,3-dihydro-1H-benzo[d]imidazol-1-yl)propyl)-1-phenyl-1,3,8-triazaspiro[4.5]decan-3-yl)-2-phenylacetic acid]	< 10
CC(C)(Oc1ccc(CN2CN(c3ccccc3)C3(CCN(CCCn4c(=O)[nH]c5ccccc54)CC3)C2=O)cc1)C(=O)O [Compound 102, 2-Methyl-2-(4-((4-oxo-8-(3-(2-oxo-2,3-dihydro-1H-benzo[d]imidazol-1-yl)propyl)-1-phenyl-1,3,8-triazaspiro[4.5]decan-3-yl)methyl)phenoxy)propanoic acid]	< 10
O=C(O)[C@@H](c1ccccc1)N1CN(c2ccccc2)C2(CCN(CCCN3C(=O)Cc4ccccc43)CC2)C1=O [Compound 166, (R)-2-(4-oxo-8-(3-(2-oxoindolin-1-yl)propyl)-1-phenyl-1,3,8-triazaspiro[4.5]decan-3-yl)-2-phenylacetic acid]	< 10
CS(=O)(=O)Nc1cccc(N2CN(c3ccccc3)C3(CCN(CCCC(=O)c4ccc(F)cc4)CC3)C2=O)c1 [Compound 211]	< 10
CCN(CC)C(=O)COC(=O)c1cccc(CN2CN(c3ccccc3)C3(CCN(CCCn4c(=O)[nH]c5ccccc54)CC3)C2=O)c1 [Compound 30, 2-(Diethylamino)-2-oxoethyl 3-((4-oxo-8-(3-(2-oxo-2,3-dihydro-1H-benzo[d]imidazol-1-yl)propyl)-1-phenyl-1,3,8-triazaspiro[4.5]decan-3-yl)methyl)benzoate]	< 10
O=C(O)c1ccccc1CN1CN(c2ccc(F)cc2)C2(CCN(CCCN3C(=O)Cc4ccccc43)CC2)C1=O [Compound 152, 2-((1-(4-Fluorophenyl)-4-oxo-8-(3-(2-oxoindolin-1-yl)propyl)-1,3,8-triazaspiro[4.5]decan-3-yl)methyl)benzoic acid]	< 10
O=C(O)c1cccc(CN2CN(c3ccccc3)C3(CCN(CCCn4nnc5ccccc54)CC3)C2=O)c1 [Compound 85, 3-((8-(3-(1H-Benzo[d][1,2,3]triazol-1-yl)propyl)-4-oxo-1-phenyl-1,3,8-triazaspiro[4.5]decan-3-yl)methyl)benzoic acid]	< 10
O=C(O)c1cccc(CN2CN(c3ccccc3)C3(CCN(CCCn4c(=O)[nH]c5ccccc54)CC3)C2=O)c1 [Compound 11, 3-((4-Oxo-8-(3-(2-oxo-2,3-dihydro-1H-benzo[d]imidazol-1-yl)propyl)-1-phenyl-1,3,8-triazaspiro[4.5]decan-3-yl)methyl)benzoic acid]	< 10
O=C(CCCN1CCC2(CC1)C(=O)N([C@H](C(=O)O)c1ccccc1)CN2c1ccccc1)c1ccccc1 [Compound 168, (S)-2-(4-oxo-8-(4-oxo-4-phenylbutyl)-1-phenyl-1,3,8-triazaspiro[4.5]decan-3-yl)-2-phenylacetic acid]	< 10
O=C(O)c1cccc(CN2CN(c3ccccc3)C3(CCN(CCCC4C(=O)Nc5ccccc54)CC3)C2=O)c1 (stereo not shown) [Compound 160, 3-((4-oxo-8-(3-(2-oxoindolin-3-yl)propyl)-1-phenyl-1,3,8-triazaspiro[4.5]decan-3-yl)methyl)benzoic acid, hydrochloride]	< 10
O=C(O)CCCC(c1ccccc1)N1CN(c2ccccc2)C2(CCN(CCCn3c(=O)[nH]c4ccccc43)CC2)C1=O (stereo not shown) [Compound 69, 5-(4-Oxo-8-(3-(2-oxo-2,3-dihydro-1H-benzo[d]imidazol-1-yl)propyl)-1-phenyl-1,3,8-triazaspiro[4.5]decan-3-yl)-5-phenylpentanoic acid]	< 10
O=C(O)c1cccc(CN2CN(c3ccccc3)C3(CCN(CCCn4c(=O)sc5ccccc54)CC3)C2=O)c1 [Compound 52, 3-((4-Oxo-8-(3-(2-oxobenzo[d]thiazol-3(2H)-yl)propyl)-1-phenyl-1,3,8-triazaspiro[4.5]decan-3-yl)methyl)benzoic acid]	< 10
O=C(O)c1cccc(CN2CN(c3ccc(F)cc3)C3(CCN(CCCn4c(=O)n(C5CC5)c5ccccc54)CC3)C2=O)c1 [Compound 156, 3-((8-(3-(3-cyclopropyl-2-oxo-2,3-dihydro-1H-benzo[d]imidazol-1-yl)propyl)-1-(4-fluorophenyl)-4-oxo-1,3,8-triazaspiro[4.5]decan-3-yl)methyl)benzoic acid]	< 10
CS(=O)(=O)Nc1ccc(CN2CN(c3ccccc3)C3(CCN(CCCC(=O)c4ccccc4)CC3)C2=O)cc1 [Compound 186, N-(4-((4-oxo-8-(4-oxo-4-phenylbutyl)-1-phenyl-1,3,8-triazaspiro[4.5]decan-3-yl)methyl)phenyl)methanesulfonamide]	< 10
O=C(O)c1ccc(CN2CN(c3ccccc3)C3(CCN(CCCn4c(=O)[nH]c5ccccc54)CC3)C2=O)cc1 [Compound 17, 4-((4-Oxo-8-(3-(2-oxo-2,3-dihydro-1H-benzo[d]imidazol-1-yl)propyl)-1-phenyl-1,3,8-triazaspiro[4.5]decan-3-yl)methyl)benzoic acid]	< 10
CC1C(=O)N(CCCN2CCC3(CC2)C(=O)N(Cc2cccc(C(=O)O)c2)CN3c2ccccc2)c2ccccc21 (stereo not shown) [Compound 146, 3-((8-(3-(3-methyl-2-oxoindolin-1-yl)propyl)-4-oxo-1-phenyl-1,3,8-triazaspiro[4.5]decan-3-yl)methyl)benzoic acid]	< 10

— US9156840B2, “D2 antagonists, methods of synthesis and methods of use” (ALTOS THERAPEUTICS, LLC, priority 2010, dated 2015)
